Measured values from US11840528B2 (Hoffmann-La Roche Inc., priority 2018, dated 2023).

Key:
h-GABA-A α5β3γ2 [1] = molecular target: T1, h-GABA-A α5β3γ2 (Homo sapiens, UniProt P18507+P31644); test: [3H]flumazenil competition binding assay, membranes of HEK293 cells expressing GABAA receptors; settings: displacement of [3H]-Flumazenil 0.5 nM, HEK293 cells expressing human receptors, mean of two determinations; Table 1
Summary of the method: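 Receptor source: human α5β3γ2 transiently transfected into HEK293 cells, membranes in pH 7.5 Krebs-tris. Filtration through GF/C, then scintillation counting.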

h-GABA-A α5β3γ2 [2] = molecular target: T1, h-GABA-A α5β3γ2; test: Two-electrode voltage clamp electrophysiology in Xenopus laevis oocytes expressing GABAA receptors, modulation of GABA EC20 current; format: cell-based; parameters: host or cells: Xenopus laevis oocytes micro-injected with RNA transcripts of the subunits; settings: Table 1; for Efficacy (GABA) %: % modulation of GABA EC20 = 100*(Fold increase-1); for Fold increase h-GABA-A α5β3γ2 oocyte: test compound at approx. 30 fold its Ki, GABA at EC20
Summary of the method: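 Modulation is reported as % of the GABA EC20 current, calculated as 100*(Fold increase−1) from the peak ratio between a second GABA response carrying compound (applied at roughly 30-fold Ki) and a preceding control response. Oocytes expressing human α5β3γ2 were clamped at −80 mV at room temperature, 3–5 days after injection.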

Row | SMILES | Ki (h-GABA-A α5β3γ2 [1]) | Efficacy (GABA) % (h-GABA-A α5β3γ2 [2]) | Fold increase h-GABA-A α5β3γ2 oocyte (h-GABA-A α5β3γ2 [2])
1 | Cc1onc(-c2ccc(Cl)nc2)c1Cn1ncc(N2CC3(CCCCO3)C2)cc1=O [Example 233, 2-((3-(6-chloropyridin-3-yl)-5-methylisoxazol-4-yl)methyl)-5-(5-oxa-2-azaspiro[3.5]nonan-2-yl)pyridazin-3(2H)-one] | 33.6 nM | 82% | 1.82
2 | Cc1ccc(-c2noc(C)c2Cn2ncc(N3CC(OC(C)(C)C)C3)cc2=O)nn1 [Example 234, 5-(3-(tert-butoxy)azetidin-1-yl)-2-((5-methyl-3-(6-methylpyridazin-3-yl)isoxazol-4-yl)methyl)pyridazin-3(2H)-one] | 4.4 nM | 93% | 1.93
3 | Cc1ccc(-c2noc(C)c2Cn2ncc(N3CC4(CCCCO4)C3)cc2=O)nn1 [Example 235, 2-((5-methyl-3-(6-methylpyridazin-3-yl)isoxazol-4-yl)methyl)-5-(5-oxa-2-azaspiro[3.5]nonan-2-yl)pyridazin-3(2H)-one] | 2.8 nM | 77% | 1.77
4 | Cc1ccc(-c2noc(C)c2Cn2ncc(N3CC(Oc4ccnc(Cl)c4)C3)cc2=O)nn1 [Example 236, 5-[3-[(2-chloro-4-pyridyl)oxy]azetidin-1-yl]-2-[[5-methyl-3-(6-methylpyridazin-3-yl)isoxazol-4-yl]methyl]pyridazin-3-one] | 2.9 nM | 136% | 2.36
5 | CO[C@H]1COC2(C1)CN(c1cnn(Cc3c(-c4ccc(C(F)(F)F)nc4)noc3C)c(=O)c1)C2 [Example 237, 5-[(7R)-7-methoxy-5-oxa-2-azaspiro[3.4]octan-2-yl]-2-[[5-methyl-3-[6-(trifluoromethyl)-3-pyridyl]isoxazol-4-yl]methyl]pyridazin-3-one] | 5.8 nM | 147% | 2.47
6 | Cc1ccc(-c2noc(C)c2Cn2ncc(N3CC(OC4CCC4)C3)cc2=O)nn1 [Example 238, 5-[3-(cyclobutoxy)azetidin-1-yl]-2-[[5-methyl-3-(6-methylpyridazin-3-yl)isoxazol-4-yl]methyl]pyridazin-3-one] | 6.8 nM | 128% | 2.28
7 | Cc1ccc(-c2noc(C)c2Cn2ncc(N3CC(OC4CC4)C3)cc2=O)nn1 [Example 239, 5-[3-(cyclopropoxy)azetidin-1-yl]-2-[[5-methyl-3-(6-methylpyridazin-3-yl)isoxazol-4-yl]methyl]pyridazin-3-one] | 1 nM | 67% | 1.67
8 | Cc1ccc(-c2noc(C)c2Cn2ncc(N3CC4(C[C@@H](OC(F)F)CO4)C3)cc2=O)nn1 [Example 242, 5-[(7R)-7-(difluoromethoxy)-5-oxa-2-azaspiro[3.4]octan-2-yl]-2-[[5-methyl-3-(6-methylpyridazin-3-yl)isoxazol-4-yl]methyl]pyridazin-3-one] | 3 nM | 80% | 1.8
9 | Cc1ccc(-c2noc(CF)c2Cn2ncc(N3C[C@@H](C)O[C@@H](C)C3)cc2=O)cn1 [Example 243, 5-((2S,6R)-2,6-dimethylmorpholin-4-yl)-2-((5-(fluoromethyl)-3-(6-methylpyridin-3-yl)-1,2-oxazol-4-yl)methyl)pyridazin-3-one] | 4.6 nM | 173% | 2.73
10 | Cc1onc(-c2ccc(C(F)(F)F)nc2)c1Cn1ncc(N2CC(OCC(F)F)C2)cc1=O [Example 244, 5-[3-(2,2-difluoroethoxy)azetidin-1-yl]-2-[[5-methyl-3-[6-(trifluoromethyl)-3-pyridyl]isoxazol-4-yl]methyl]pyridazin-3-one] | 38.8 nM | 140% | 2.4
11 | Cc1onc(-c2ccc(Cl)nc2)c1Cn1ncc(N2CC(OCC(F)F)C2)cc1=O [Example 245, 2-((3-(6-chloropyridin-3-yl)-5-methylisoxazol-4-yl)methyl)-5-(3-(2,2-difluoroethoxy)azetidin-1-yl)pyridazin-3(2H)-one] | 18.7 nM | 106% | 2.06
12 | Cc1ccc(-c2noc(C)c2Cn2ncc(N3CC4(C[C@H](OC(F)F)CO4)C3)cc2=O)nn1 [Example 246, 5-[(7S)-7-(difluoromethoxy)-5-oxa-2-azaspiro[3.4]octan-2-yl]-2-[[5-methyl-3-(6-methylpyridazin-3-yl)isoxazol-4-yl]methyl]pyridazin-3-one] | 3.4 nM | 130% | 2.3
13 | Cc1ccc(-c2noc(C)c2Cn2ncc(N3CCC4(CCOCC4)CC3)cc2=O)nn1 [Example 247, 2-[[5-methyl-3-(6-methylpyridazin-3-yl)isoxazol-4-yl]methyl]-5-(3-oxa-9-azaspiro[5.5]undecan-9-yl)pyridazin-3-one] | 2.8 nM | 94% | 1.94
14 | Cc1onc(-c2ccc(Cl)nc2)c1Cn1ncc(N2CCC3(CCOCC3)CC2)cc1=O [Example 248, 2-((3-(6-chloropyridin-3-yl)-5-methylisoxazol-4-yl)methyl)-5-(3-oxa-9-azaspiro[5.5]undecan-9-yl)pyridazin-3(2H)-one] | 24.6 nM | 107% | 2.07
15 | Cc1onc(-c2ncc(C(F)(F)F)cn2)c1Cn1ncc(N2CC(OC3CC3)C2)cc1=O [Example 249, 5-(3-cyclopropoxyazetidin-1-yl)-2-((5-methyl-3-(5-(trifluoromethyl)pyrimidin-2-yl)isoxazol-4-yl)methyl)pyridazin-3(2H)-one] | 2.2 nM | 60% | 1.6
16 | Cc1onc(-c2ncc(C(F)(F)F)cn2)c1Cn1ncc(N2CC3(C2)CC(F)(F)CO3)cc1=O [Example 250, 5-(7,7-difluoro-5-oxa-2-azaspiro[3.4]octan-2-yl)-2-((5-methyl-3-(5-(trifluoromethyl)pyrimidin-2-yl)isoxazol-4-yl)methyl)pyridazin-3(2H)-one] | 3.3 nM | 46% | 1.46
17 | Cc1onc(-c2ccc(Cl)nc2)c1Cn1ncc(N2CC(OC(F)(F)F)C2)cc1=O [Example 251, 2-((3-(6-chloropyridin-3-yl)-5-methylisoxazol-4-yl)methyl)-5-(3-(trifluoromethoxy)azetidin-1-yl)pyridazin-3(2H)-one] | 16.6 nM | 83% | 1.83
18 | COC1CN(c2cnn(Cc3c(-c4ccc(Cl)nn4)noc3C)c(=O)c2)C1 [Example 252, 2-((3-(6-chloropyridazin-3-yl)-5-methylisoxazol-4-yl)methyl)-5-(3-methoxyazetidin-1-yl)pyridazin-3(2H)-one] | 4.2 nM | 86% | 1.86
19 | Cc1onc(-c2ccc(Cl)nc2)c1Cn1ncc(N2CC(OC3CCC3)C2)cc1=O [Example 253, 2-((3-(6-chloropyridin-3-yl)-5-methylisoxazol-4-yl)methyl)-5-(3-cyclobutoxyazetidin-1-yl)pyridazin-3(2H)-one] | 31 nM | 156% | 2.56
20 | Cc1onc(-c2ccc(Cl)nc2)c1Cn1ncc(N2CC(OCC(F)(F)F)C2)cc1=O [Example 254, 2-((3-(6-chloropyridin-3-yl)-5-methylisoxazol-4-yl)methyl)-5-(3-(2,2,2-trifluoroethoxy)azetidin-1-yl)pyridazin-3(2H)-one] | 27.6 nM | 147% | 2.47
21 | Cc1onc(-c2ccc(Cl)nc2)c1Cn1ncc(N2CC(OC(F)F)C2)cc1=O [Example 255, 2-((3-(6-chloropyridin-3-yl)-5-methylisoxazol-4-yl)methyl)-5-(3-(difluoromethoxy)azetidin-1-yl)pyridazin-3(2H)-one] | 14.6 nM | 99% | 1.99
22 | Cc1onc(-c2ccc(Cl)nc2)c1Cn1ncc(N2CCC3(CCCO3)CC2)cc1=O [Example 256, 2-((3-(6-chloropyridin-3-yl)-5-methylisoxazol-4-yl)methyl)-5-(1-oxa-8-azaspiro[4.5]decan-8-yl)pyridazin-3(2H)-one] | 45.4 nM | 126% | 2.26
23 | Cc1onc(-c2ccc(Cl)nc2)c1Cn1ncc(N2CC3(CCOCC3)C2)cc1=O [Example 257, 2-((3-(6-chloropyridin-3-yl)-5-methylisoxazol-4-yl)methyl)-5-(7-oxa-2-azaspiro[3.5]nonan-2-yl)pyridazin-3(2H)-one] | 36.6 nM | 108% | 2.08
24 | Cc1onc(-c2ccc(Cl)nc2)c1Cn1ncc(N2CCC3(CC2)COC3)cc1=O [Example 258, 2-((3-(6-chloropyridin-3-yl)-5-methylisoxazol-4-yl)methyl)-5-(2-oxa-7-azaspiro[3.5]nonan-7-yl)pyridazin-3(2H)-one] | 34.3 nM | 126% | 2.26
